Source: US10111880B2, “Compounds for the treatment of diabetes and disease complications arising from same” (BEN-GURION UNIVERSITY OF THE NEGEV RESEARCH AND DEVELOPMENT …, priority 2013, dated 2018)

Legend:
Format in all cases: in vivo, mouse
[1] = system: insulin expressing beta islets; experiment: Immunofluorescence of pancreatic slices with anti-insulin antibody, insulin expressing beta islets in mice; conditions: for pancreatic beta cell mass: summary statement
Protocol: The light grey (originally red) stains insulin producing cells, and the darker grey (originally blue) is for DAPI staining. Density of insulin staining per area was measured using “Image J” software (D-E). The results are mean±S.E.; n=4. ***p<0.005. Magnification: ×10.

[2] = system: STZ-induced diabetic ICR mice; experiment: Blood glucose in STZ-induced diabetic ICR mice, long-term AGS treatment (5 months) with or without insulin; parameters: Blood Glucose At 101 day / Blood Glucose At 111 day: unit: mg/dL; conditions: for circulating glucose levels in diabetic animals: summary statement
Protocol: [0182]7 week-old female ICR mice were intra-peritoneally injected with STZ (40 mg\Kg) for 5 consecutive days. Non-diabetic mice received citrate buffer (pH 4.3, cold), which served as the vehicle controls for this study. AGS-500 (6 mg\Kg) was then administered subcutaneously every 2 days, for 5 months, on the first day after STZ administration. A further control group, where DMSO was administered in accordance with this regimen, was included. Mice were divided into the following 6 groups (10 mice per group except STZ only-5 mice): • STZ only • STZ+DMSO • Citrate+DMSO 1% every day • STZ+AGS-499 (6 mg/kg) injected every day S.C • STZ+AGS-500 (6 mg/kg) injected every day S.C • STZ+AGS-500 (6 mg/kg) injected every other day S.C Mice were weighed and blood glucose levels were measured using a free style glucometer. Food consumption was also measured 24 hours prior to STZ injection. The concentration of STZ to be injected was calculated. STZ at 40 mg/kg was injected ip for 5 consecutive days. AGS treatment was administered one day following the last STZ injection. The establishment of diabetes was validated by the assessment of blood glucose levels performed every 3 days (at the beginning) and once a week after 59 days from the initiation of the experiment. Blood glucose levels over 200 mg/dl (measured 3 consecutive times) indicated a diabetic state. At 80 days from the initiation of the experiments each group was divided to 2 subgroups which received either insulin (4 units/kg) or acetic acid (0.015%) both in HEPES buffer (pH 7.45) injected every 48 hours. Mice were sacrificed after 5 months from the initiation of the experiments. Blood glucose levels were monitored every 3 days. Ten weeks after the beginning of this study, each group was divided into 2 sub-groups, one of each also received insulin (4 U\Kg) every 2 days, except for the non-diabetic sub-groups. Acetic acid (1%) served as the vehicle control.

[3] = system: STZ-induced diabetic ICR mice; experiment: Glucose tolerance test in STZ mice after short course (2 weeks) AGS treatment
Protocol: (§1) Eight weeks-old female ICR mice were injected intraperitoneally (IP) with Streptozotocin (STZ), at a dose of 40 mg/Kg, for 5 consecutive days. The following day and onward, mice were administered the AGS compounds (499 or 500, as indicated), at a dose of 6 mg/Kg, either subcutaneously or orally, every other day. Blood glucose levels were monitored daily.
(§2) After the establishment of diabetes (i.e. three consecutive blood glucose measurements of >200 mg/dL), mouse groups were further sub-divided into 2 sub-groups, one of each received insulin (gradual administration of 0.5-6 units/Kg, over a period of 2 weeks) subcutaneously, every other day. Blood glucose levels were monitored daily.
Glucose tolerance tests were also performed as follows: After two weeks mice were fasted for 12 hours, then injected with D-glucose (1.5 g/Kg, IP) and blood glucose levels were examined at 0, 10, 20, 30, 60, 90 and 120 minutes, in order to evaluate pancreatic function.

[4] = system: STZ-induced diabetic ICR mice; experiment: Blood glucose over time in STZ mice, short course (2 weeks) AGS treatment with or without insulin
Protocol: as §1, §2

[5] = system: STZ-induced diabetic ICR mice; experiment: Glucose Tolerance Test (GTT) in STZ diabetic mice after 2 and 5 months; conditions: daily
Protocol: Glucose Tolerance Test: Animals were fasted for 12 hr with free access to water. Blood-glucose levels after fast were measured and then the animals received an i.p. injection of glucose (1.5 g/kg). Blood samples were taken at several intervals (for the duration of 2 hr), when glucose levels above 200 mg/dl at 2 hr confirmed a diagnosis of diabetes.
[…] Mice were subjected to 12 hours fast (with water) weighed, blood glucose level was measured and Glucose at 1.5 gr/kg in no more than 100 μl was injected IP. Blood glucose levels were measured at 10, 20, 30, 60, 90 and 120 min after glucose injection. glucose tolerance test.

[6] = system: STZ-induced diabetic mice, kidney glomeruli; experiment: Kidney histopathology (PAS staining of glomeruli) in STZ diabetic mice; conditions: summary statement
Protocol: Mice were treated as described hereinabove. Following one month of treatment mice were sacrificed and histolopathological examination of the kidney was performed.
FIG. 9 plots the evaluation of a number of parameters assessed via the histopathology analysis.

Compound: CCOCc1cc(C(C)(c2cc(COCC)c(O)c(COCC)c2)c2cc(COCC)c(O)c(COCC)c2)cc(COCC)c1O [AGS-499, 1,1,1,1-tris (4-hydroxy-3,5-methylene ethoxy-phenyl)-ethane]
- No of insulin expressing beta islets/mouse ([1]; no insulin, daily): 4.3
- increase in Insulin expressing Beta islets ([1]; no insulin, daily): 165%
- No of insulin expressing beta islets/mouse ([1]; with insulin, AGS daily): 3.5
- increase in Insulin expressing Beta islets ([1]; with insulin, AGS daily): 135%
- % reduction in blood glucose level ([2]; after 12 hours fast, day 142, 6 mg/kg s.c. daily): 20%
- Blood glucose level Average ([2]; after 12 hours fast, day 142, 6 mg/kg s.c. daily, in mg/dL (unit assumed)): 317
- % reduction In blood Glucose 101 day ([2]; no insulin, daily): 29%
- Blood Glucose At 101 day ([2]; no insulin, daily): 500
- Blood Glucose At 111 day ([2]; no insulin, daily): 500
- reduction In blood Glucose 111 day ([2]; no insulin, daily): 17%
- Blood Glucose At 101 day ([2]; with insulin (4 units/kg every 48 hours), AGS daily): 480
- % reduction In blood Glucose 101 day ([2]; with insulin, AGS daily): 32%
- Blood Glucose At 111 day ([2]; with insulin, AGS daily): 400
- reduction In blood Glucose 111 day ([2]; with insulin, AGS daily): 34%
- mean blood glucose levels in a glucose tolerance test ([3]; 6 mg/Kg subcutaneously or orally every other day, FIG. 11): reduced mean blood glucose levels
- effect of adding insulin on circulating glucose levels in a glucose tolerance test ([3]; AGS subcutaneously (AGS500 also orally), FIG. 12): adding insulin did not appreciably lower the circulating levels
- circulating glucose levels over time ([4]; 6 mg/Kg every other day, short course (2 weeks), FIG. 13-1): lowering circulating glucose levels significantly
- circulating glucose levels over time, combined with insulin therapy ([4]; short course, insulin 0.5-6 units/Kg, FIG. 13-2): synergistic contribution
- Improvement (fold) ([5]; GTT after 2 months): 3 fold
- Fold of Improvement ([5]; GTT after 5 months): 3 fold
- Time needed for the Pancreas to cope glucose load after 5 months ([5]; GTT): 30 min
- Time needed for the Pancreas to cope with glucose load after 2 months ([5]; GTT): 30 min

Compound: CCOCc1cc(C(C)(c2cc(COCC)c(O)c(COCC)c2)c2cc(COCC)c(O)c(COCC)c2)cc(COCC)c1O [formula XIII]
- pancreatic beta cell mass [1]: increase of pancreatic beta cell mass
- circulating glucose levels in diabetic animals [2]: promoted reduction of circulating glucose levels
- kidney damage in diabetic subjects [6]: reduced kidney damage

Compound: CC(c1cc(Br)c(O)c(Br)c1)(c1cc(Br)c(O)c(Br)c1)c1cc(Br)c(O)c(Br)c1 [formula XIV]
- pancreatic beta cell mass [1]: increase of pancreatic beta cell mass
- circulating glucose levels in diabetic animals [2]: promoted reduction of circulating glucose levels
- kidney damage in diabetic subjects [6]: reduced kidney damage

Compound: CC(c1cc(CN2CCCC2)c(O)c(CN2CCCC2)c1)(c1cc(CN2CCCC2)c(O)c(CN2CCCC2)c1)c1cc(CN2CCCC2)c(O)c(CN2CCCC2)c1 [formula XI]
- pancreatic beta cell mass [1]: increase of pancreatic beta cell mass
- circulating glucose levels in diabetic animals [2]: promoted reduction of circulating glucose levels
- kidney damage in diabetic subjects [6]: reduced kidney damage

Compound: insulin: insulin (4 units/kg) in HEPES buffer injected every 48 hours [reference compound]
- No of insulin expressing beta islets/mouse ([1]; insulin alone (STZ, DMSO)): 3.25
- increase in Insulin expressing Beta islets ([1]; insulin alone (STZ, DMSO)): 125%
- circulating glucose levels in control groups ([2]; insulin 4 U/Kg every 2 days, STZ-induced diabetic mice, FIG. 2C): lowered circulating glucose levels in control groups
- Blood Glucose At 101 day ([2]; insulin only (4 units/kg every 48 hours), STZ or STZ + vehicle groups): 700
- Blood Glucose At 111 day ([2]; insulin only, STZ or STZ + vehicle groups): 600
